# Experiments:
# PC12 cells [1] = test: Protective effect against 6-OHDA-induced cytotoxicity in PC12 cells (MTT); settings: Rattus norvegicus, PC-12, read-out: IC50 against 6-OHDA-induced cytotoxicity
# Description: (§1) PC12 cells were routinely maintained in RPMI-1640 media containing 100 IU/mL penicillin, and 100 μg/mL streptomycin supplemented by 10% heat-inactivated HS, 5% FBS in a humidified incubator containing 5% CO2 and 95% air at 37 °C [25]. The cell culture media was changed every two days. To perform experiments, cells were plated on poly-D-lysine/laminin-coated 24-well plates at a density of 3 × 10^5 cells/well and incubated for at least 24 h to allow cell adhesion.
# (§2) To examine the effects of the test compounds on cell survival, cells were incubated in low serum media (1% HS, 1% FBS, 100 IU/mL penicillin, and 100 μg/mL streptomycin) with test compounds at the concentrations of 10 and 30 μM or an equivalent volume of vehicle control (DMSO at the final concentration of 0.3%) for 24 h. The media containing test compounds was sonicated at room temperature for 30 min to assure adequate dissolution in the media. […]
# (§3) After the desired treatment, cell viability was determined by MTT assay as described previously, with slight modification. […] The absorbance of the dissolved solution was measured at 550 nm using a microplate reader (SpectraMax M2e, Molecular Devices, Sunnyvale, CA, USA). The cell viability was presented as the percentage of the absorbance measured in the vehicle-treated control cells. […]
# PC12 cells [2] = test: Protective effect against rotenone-induced cytotoxicity in PC12 cells (MTT); settings: Rattus norvegicus, PC-12, read-out: IC50 against rotenone-induced cytotoxicity
# Description: as §1, §2, §3
smiles,measurement,setting,value
"O=C(Nc1ccc(Br)cc1)c1ccc2[nH]ccc2c1 [Compound 8b, N-(4-bromophenyl)-1H-indole-5-carboxamide]",IC50,PC12 cells [1],2.8 µM
same,IC50,PC12 cells [2],3.3 µM

# — PMC8533206 (Antioxidants, 2021)
